Measurements from ChEMBL document CHEMBL3046762, “Synthesis and biological evaluation of 2-amino-5-sulfanyl-1,3,4-thiadiazole derivatives as antidepressant, anxiolytics and anticonvulsant agents” (2011).
Activity calls are given as the source filed them. The rule behind the calls is not given here.

What was measured:
Rattus norvegicus [1] = assay: Anticonvulsant activity in Rattus norvegicus Wistar albino (rat) assessed as protection against maximal electroshock-induced convulsion at 30 mg/kg, ip measured after 30 min; type: functional; conditions: route intraperitoneal
Rattus norvegicus [2] = assay: Anticonvulsant activity in Rattus norvegicus Wistar albino (rat) assessed as duration of tonic hind limb extensor at 30 mg/kg, ip measured after 30 min by maximal electroshock-induced convulsion test (reference value: 15.71 +/- 0.01 sec); type: functional, Hindlimb; conditions: route intraperitoneal
Rattus norvegicus [3] = assay: Anticonvulsant activity in Rattus norvegicus Wistar albino (rat) assessed as reduction in pentyleneterazole-induced mortality at 30 mg/kg, ip pretreated 30 min prior to pentylenetetrazole challenge; type: functional, organism-based; design: dose 30 mg/kg
Mus musculus [4] = assay: Anxiolytic activity in Mus musculus balb/cj (mouse) assessed as preference to open arm at 30 mg/kg, ip measured after 30 min by elevated pluze maze test; type: functional; conditions: route intraperitoneal
Mus musculus [5] = assay: Antidepressant activity in Mus musculus (mouse) assessed as increase in mobile phase at 30 mg/kg, ip measured after 30 min by tail suspension test; type: functional; conditions: route intraperitoneal
Mus musculus [6] = assay: Antidepressant activity in Mus musculus (mouse) assessed as decrease in immobility at 30 mg/kg, ip measured after 30 min by despair swim test; type: functional; conditions: 0.5 h, route intraperitoneal
Mus musculus [7] = assay: Anxiolytic activity in Mus musculus balb/cj (mouse) assessed as time spent in open arm at 30 mg/kg, ip measured after 30 min by elevated pluze maze test (reference value: 12.25 +/- 0.02 sec); type: functional; conditions: route intraperitoneal
Rattus norvegicus [8] = assay: Anticonvulsant activity in Rattus norvegicus Wistar albino (rat) assessed as inhibition of pentyleneterazole-induced clonic convulsion measured as onset of convulsion at 30 mg/kg, ip pretreated 30 min prior to pentylenetetrazole challenge (reference value: 48.25 +/- 0.01 sec); type: functional; conditions: route intraperitoneal
Mus musculus [9] = assay: Anxiolytic activity in Mus musculus Swiss (mouse) assessed as time spent in light chamber at 30 mg/kg, ip measured after 30 min by light and dark model test (reference value: 130.2 +/- 0.01 sec); type: functional; conditions: route intraperitoneal
Rattus norvegicus [10] = assay: Anticonvulsant activity in Rattus norvegicus Wistar albino (rat) assessed as reduction in pentyleneterazole-induced mortality at 4 mg/kg, ip pretreated 30 min prior to pentylenetetrazole challenge; type: functional, organism-based; design: dose 4 mg/kg
Mus musculus [11] = assay: Anxiolytic activity in Mus musculus balb/cj (mouse) assessed as time spent in open arm at 2 mg/kg, ip measured after 30 min by elevated pluze maze test (reference value: 12.25 +/- 0.02 sec); type: functional; conditions: route intraperitoneal
Mus musculus [12] = assay: Antidepressant activity in Mus musculus (mouse) assessed as decrease in immobility at 15 mg/kg, ip measured after 30 min by despair swim test; conditions: 0.5 h, read-out: INH
Rattus norvegicus [13] = assay: Anticonvulsant activity in Rattus norvegicus Wistar albino (rat) assessed as duration of tonic hind limb extensor at 25 mg/kg, ip measured after 30 min by maximal electroshock-induced convulsion test; type: functional, organism-based; design: dose 25 mg/kg; conditions: Hindlimb
Rattus norvegicus [14] = assay: Anticonvulsant activity in Rattus norvegicus Wistar albino (rat) assessed as protection against maximal electroshock-induced convulsion at 25 mg/kg, ip measured after 30 min; type: functional; conditions: route intraperitoneal

| Compound | Activity (Rattus norvegicus [1]) [%] | Time (Rattus norvegicus [2]) [s] | Activity (Rattus norvegicus [3]) | Activity (Mus musculus [4]) [%] | Activity (Mus musculus [5]) [%] | inhibition in vivo at 30 mg/kg (Mus musculus [6]) [%] | Time (Mus musculus [7]) [s] | Time (Rattus norvegicus [8]) [s] | Time (Mus musculus [9]) [s] | Activity (Rattus norvegicus [10]) | Time (Mus musculus [11]) [s] | inhibition in vivo at 15 mg/kg (Mus musculus [12]) [%] | Activity (Rattus norvegicus [13]) | Activity (Rattus norvegicus [14]) [%] |
| --- | --- | --- | --- | --- | --- | --- | --- | --- | --- | --- | --- | --- | --- | --- |
| O=S(=O)(Cl)c1ccc(Sc2nnc(Nc3ccc(Cl)cc3)s2)cc1 | 16.66 | 7.55 | Active | 9.75 | 15.68 | 23.9 | 30.01 | 63.6 | 151.5 |  |  |  |  |  |
| O=S(=O)(Cl)c1ccc(Sc2nnc(Nc3ccc(C(F)(F)F)cc3)s2)cc1 | 66.66 | 4.42 | Active | 18.92 | 45.97 | 53.5 | 47.92 | 180.25 | 192 |  |  |  |  |  |
| NS(=O)(=O)c1ccc(Sc2nnc(Nc3ccc(F)cc3)s2)cc1 | 66.66 | 4.5 | Active | 18.01 | 40.31 | 50.5 | 46.31 | 171.25 | 185.9 |  |  |  |  |  |
| O=S(=O)(Cl)c1ccc(Nc2nnc(Sc3ccc(S(=O)(=O)Cl)cc3)s2)cc1 | 0 | 8.5 | Active | 7.9 | 10.09 | 25.9 | 27.63 | 125.2 | 172.5 |  |  |  |  |  |
| NS(=O)(=O)c1ccc(Sc2nnc(Nc3ccc(C(F)(F)F)cc3)s2)cc1 | 33.33 | 7.37 | Active | 8.92 | 31.29 | 27.9 | 23.72 | 126.2 | 151.26 |  |  |  |  |  |
| NS(=O)(=O)c1ccc(Sc2nnc(Nc3ccc(S(=O)(=O)Cl)cc3)s2)cc1 | 50 | 4.69 | Active | 17.2 | 40.58 | 50.4 | 45.93 | 175.2 | 180.25 |  |  |  |  |  |
| Cc1ccc(Nc2nnc(Sc3ccc(S(N)(=O)=O)cc3)s2)cc1 | 50 | 4.52 | Active | 18.25 | 42.21 | 51.5 | 45.69 | 170.26 | 190.25 |  |  |  |  |  |
| Cc1ccc(Nc2nnc(Sc3ccc(S(=O)(=O)Cl)cc3)s2)cc1 | 16.66 | 8.01 | Active | 7.58 | 15.19 | 29.2 | 22.2 | 101.26 | 169.25 |  |  |  |  |  |
| O=S(=O)(Cl)c1ccc(Sc2nnc(Nc3ccc(F)cc3)s2)cc1 | 0 | 8.25 | Active | 10.54 | 21.51 | 22.8 | 25.26 | 101.26 | 166.3 |  |  |  |  |  |
| O=S(=O)(Cl)c1ccc(Sc2nnc(Nc3ccc(C(Cl)(Cl)Cl)cc3)s2)cc1 | 16.66 | 7.01 | Active | 8.75 | 19.16 | 30.2 | 26.2 | 99.9 | 170.5 |  |  |  |  |  |
| NS(=O)(=O)c1ccc(Sc2nnc(Nc3ccc(C(Cl)(Cl)Cl)cc3)s2)cc1 | 16.66 | 6.96 | Active | 7.85 | 16.39 | 25 | 24.2 | 106.7 | 162 |  |  |  |  |  |
| CN1C(=O)CN=C(c2ccccc2)c2cc(Cl)ccc21 |  |  |  |  |  |  |  |  |  | Active |  |  |  |  |
| O=S(=O)(Cl)c1ccc(Sc2nnc(Nc3ccc(Br)cc3)s2)cc1 | 0 | 7.63 | Active | 9.25 | 20.57 | 30.7 | 25.2 | 70.25 | 159.3 |  |  |  |  |  |
| CNCCC(Oc1ccc(C(F)(F)F)cc1)c1ccccc1.Cl (stereo not drawn) [FLUOXETINE HYDROCHLORIDE] |  |  |  |  |  |  |  |  |  |  | 60.01 | 58.6 |  |  |
| NS(=O)(=O)c1ccc(Sc2nnc(Nc3ccc(Br)cc3)s2)cc1 | 33.33 | 8.01 | Active | 8.01 | 15.68 | 27.2 | 29.26 | 71.9 | 162.3 |  |  |  |  |  |
| NS(=O)(=O)c1ccc(Sc2nnc(Nc3ccc(Cl)cc3)s2)cc1 | 50 | 5.17 | Active | 16.35 | 33.33 | 29.2 | 45.51 | 151.3 | 178.2 |  |  |  |  |  |
| O=C1NC(=O)C(c2ccccc2)(c2ccccc2)N1 [PHENYTOIN] |  |  |  |  |  |  |  |  |  |  |  |  | Active | 100 |
| NS(=O)(=O)c1ccc(Nc2nnc(Sc3ccc(S(N)(=O)=O)cc3)s2)cc1 | 0 | 8.25 |  | 6.65 | 10.06 | 25.2 | 26.64 |  | 133.2 |  |  |  |  |  |
